Source: patent publication US20070167353A1, “PRODRUG COMPOSITION” (priority 2003, published 2007)
Read-outs that look alike come from different tables or passages of the source.

What was measured:
[1] = physchem; conditions: buffer, pH 7.4
[2] = in vitro; conditions: human, plasma
[3] = in vitro; conditions: human, Caco-2, pH 7.4
[4] = biological target: T1, HPEPT1 (Homo sapiens, UniProt P46059); assay: Inhibition of radiolabelled Gly-Sar uptake in DC5 cells overexpressing HPEPT1; format: cell-based; set-up: expressed in transfected cells; host or cells: HeLa cells overexpressing hPEPT1 (called 'HPEPT1 infected cells')
T1 sequence (P46059 1-708): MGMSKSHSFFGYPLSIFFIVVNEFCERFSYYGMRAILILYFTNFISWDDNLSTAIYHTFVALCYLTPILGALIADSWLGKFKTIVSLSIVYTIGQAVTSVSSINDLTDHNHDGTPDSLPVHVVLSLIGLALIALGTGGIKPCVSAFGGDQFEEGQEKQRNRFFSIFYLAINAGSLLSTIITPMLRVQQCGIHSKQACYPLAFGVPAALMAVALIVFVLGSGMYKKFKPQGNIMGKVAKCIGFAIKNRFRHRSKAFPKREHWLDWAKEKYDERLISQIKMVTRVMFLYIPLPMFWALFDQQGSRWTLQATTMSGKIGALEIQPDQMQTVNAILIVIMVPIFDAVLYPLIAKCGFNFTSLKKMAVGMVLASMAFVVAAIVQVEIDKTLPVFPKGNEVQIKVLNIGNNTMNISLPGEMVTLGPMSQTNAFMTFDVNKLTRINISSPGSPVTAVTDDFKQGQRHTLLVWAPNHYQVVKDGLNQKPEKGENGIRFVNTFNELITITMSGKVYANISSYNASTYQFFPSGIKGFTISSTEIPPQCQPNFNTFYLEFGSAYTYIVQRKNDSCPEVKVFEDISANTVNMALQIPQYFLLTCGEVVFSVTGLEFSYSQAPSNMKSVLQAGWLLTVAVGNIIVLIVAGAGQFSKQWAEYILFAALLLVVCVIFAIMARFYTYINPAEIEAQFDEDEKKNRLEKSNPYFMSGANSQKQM
Procedure: Amino acid prodrugs are tested for their interaction with the dipeptide transporter, HPEPT1, using tissue culture cells that are engineered to overexpress HPEPT1. In this example, the cells that overexpress HPEPT1, termed DC5, are a human meduloblastoma cell line that is stably transfected with a eukaryotic expression vector encoding HPEPT1. […] DC5 cells are plated at a density of 12,000 cells/well in 96-well tissue culture plates and allowed to grow for 2 days. The cells are washed once with 200 microliters of uptake buffer and aspirated. The plates are cooled to 4° C. and 25 ul of uptake buffer containing 125 nanomoles Gly-Sar (at a specific activity of 1 microcurie/micromole) is added. The uptake buffer also contains the prodrugs to be tested at concentrations ranging from 10 micromolar to 20 millimolar. The assay is initiated by placing the plate in a shaking water bath at 37° C. and is terminated after 10 min by rapid washing with multiple changes of 4° C. phosphate buffered saline (PBS). The radioactive Gly-Sar peptide that is transported by the hpept1 is extracted from the cell layer with 200 ul of a one to one mixture of methanol and water and is counted in 4 ml of CytoScint ES™ scintillation cocktail (ICN). The data are plotted as % Gly-Sar uptake of control (no competitive substrate) versus the competitive substrate concentration. […] Typically, values that are below 10 mM indicate that the drug interacts with transporter.

[5] = biological target: T2, biphenyl hydrolase-like enzyme (BPHL) (Homo sapiens, UniProt Q86WA6); format: biochemical
T2 sequence (Q86WA6 38-291): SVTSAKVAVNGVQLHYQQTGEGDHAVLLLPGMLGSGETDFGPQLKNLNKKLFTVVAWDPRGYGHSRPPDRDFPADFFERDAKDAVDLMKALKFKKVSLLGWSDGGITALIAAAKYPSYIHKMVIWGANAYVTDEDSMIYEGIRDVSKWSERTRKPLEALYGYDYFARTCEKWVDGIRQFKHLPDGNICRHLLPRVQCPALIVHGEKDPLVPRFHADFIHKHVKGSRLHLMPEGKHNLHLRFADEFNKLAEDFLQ

[6] = biological target: T1, HPEPT1; conditions: human, pH 6
[7] = test system: HeLa cells; conditions: control cultures not overexpressing hpept1, 50 micromolar, pH 6.0, 45 minutes
[8] = biological target: T3, human dipeptide transporter, hPept1 (Homo sapiens, UniProt P46059); conditions: human, pH 6
T3 sequence (P46059 1-708): T1 sequence (P46059 1-708)

[9] = test system: HeLa cells; conditions: 1 mM prodrug, pH 6.0, 45 minutes
[10] = physchem; conditions: buffer, pH 7.4; remark: listed apart in the source
[11] = in vitro; conditions: human, Caco-2
[12] = Hydrolysis of gemcitabine prodrugs in phosphate buffer pH 7.4

Structure (SMILES) | half-life [1] | half-life [2] | half-life [3] | IC50 ([4]; inhibition of Gly-Sar uptake, DC5 cells overexpressing HPEPT1, 10 min, 37° C., read-out: DC5 IC50) | % of Control (VACV) [5] | Uptake (hPepT1) [6] | hPepT1/Control [6] | Uptake Control [7] | HeLa/hPEPT1 uptake [8] | hPepT1/Control [8] | HeLa control uptake [9] | half-life [10] | half-life [11] | half-life [12] | IC50 [4]
CC(C)[C@H](N)C(=O)OCC(CO)OCn1cnc2c(=O)nc(N)[nH]c21 (some centres unmarked) [Valganciclovir] | 16.5 ± 0.24 h | 5.05 ± 0.3 h | 0.545 ± 0.0117 h | 5230 µM |  |  |  |  |  |  |  |  |  |  | 
CC(C)[C@H](N)C(=O)OCCOCn1cnc2c(=O)[nH]c(N)nc21 [Valacyclovir] |  | 5.2 ± 0.41 h | 0.462 ± 0.01 h |  | 100.0% | 2.51 ± 0.28 nmole/mg/45 min | 4.25 | 0.59 ± 0.06 nmole/mg/45 min | 221.2 ± 8.1 | 19.0 | 11.6 ± 0.5 nmol/mg/45 min | 16.5 ± 0.24 h | 0.545 ± 0.0117 h | 17.1 ± 0.19 h | 423 µM
